Key:
Cavia porcellus [1] = test: Amount of ouabain needed for production of ventricular fibrillation at a dose of 1 mg/kg (iv given 5 min prior) in guinea pig; format: functional, Cardiac ventricle
Rattus norvegicus [2] = organism: Rattus norvegicus; test: Relative potency with reference to quinidine; format: functional
Rattus norvegicus [3] = test: Effective dose against aconitine-induced arrhythmia after intravenal administration in anesthetized rats; format: functional
Cavia porcellus [4] = test: Amount of ouabain needed for production of ventricular arrhythmias that causes death in guinea pig by cardiac arrest at a dose of 1 mg/kg iv given 5 min prior; format: functional, Cardiac ventricle
Rattus norvegicus [5] = test: Tested for incidence of arrhythmias in rats after a intravenal administration of 0.5 mg/kg expressed as no. of positive cases out of no. of tested cases (10); format: functional
[6] = Acute toxicity determined after intravenal administration in mice; format: organism-based; conditions: mouse, in vivo, iv
Cavia porcellus [7] = test: Amount of ouabain needed for production of ventricular extra-systoles at a dose of 1 mg/kg (iv given 5 min prior) in guinea pig; format: functional, Cardiac ventricle
Rattus norvegicus [8] = test: Tested for incidence of arrhythmias in rats after a intravenal administration of 4 mg/kg expressed as no. of positive cases out of no. of tested cases (10); format: functional
Rattus norvegicus [9] = test: Incidence of arrhythmias in rats after a intravenal administration at 4 mg/kg, expressed as no. of positive cases out of no. of tested cases (10); format: functional
[10] = (§1) Acute toxicity in secondary evaluation when administered intravenously (iv) against aconitine-induced arrhythmias in anesthetized rats.; format: organism-based; conditions: rat, in vivo
Cavia porcellus [11] = test: Amount of ouabain needed for production of ventricular arrhythmias that causes death in guinea pig by cardiac arrest at a dose of 4 mg/kg iv given 5 min prior; format: functional, Cardiac ventricle
Cavia porcellus [12] = test: Amount of ouabain needed for production of ventricular extra-systoles at a dose of 4 mg/kg (iv given 5 min prior) in guinea pig; format: functional, Cardiac ventricle
Cavia porcellus [13] = test: Amount of ouabain needed for production of ventricular fibrillation at a dose of 4 mg/kg (iv given 5 min prior) in guinea pig; format: functional, Cardiac ventricle
Rattus norvegicus [14] = test: as §1; format: functional, organism-based
Rattus norvegicus [15] = test: (§2) Acute toxicity in secondary evaluation when administered intravenously (iv) against aconitine-induced arrhythmias in anesthetized rats; format: functional, organism-based
Rattus norvegicus [16] = test: Acute toxicity in secondary evaluation when administered intravenously (iv) against aconitine-induced arrhythmias in anesthetized rats. Relative potency with respect to quinidine.; format: functional, organism-based
Cavia porcellus [17] = test: Amount of ouabain needed for production of ventricular extra-systoles at a dose of 2 mg/kg (iv given 5 min prior) in guinea pig; format: functional, Cardiac ventricle
Cavia porcellus [18] = test: Amount of ouabain needed for production of ventricular fibrillation at a dose of 2 mg/kg (iv given 5 min prior) in guinea pig; format: functional, Cardiac ventricle
Cavia porcellus [19] = test: Amount of ouabain needed for production of ventricular arrhythmias that causes death in guinea pig by cardiac arrest at a dose of 2 mg/kg iv given 5 min prior; format: functional, Cardiac ventricle
[20] = as §2; format: organism-based; conditions: rat, in vivo

SMILES	Relative potency (Rattus norvegicus [2])	ED150 (Rattus norvegicus [3]) [mg/kg]	LD50 [6] [mg/kg]	No. of positive cases (Rattus norvegicus [9])	Average dose (Cavia porcellus [11]) [mg/kg]	Average dose (Cavia porcellus [12]) [mg/kg]	Average dose (Cavia porcellus [13]) [mg/kg]	also measured
Cc1cccc(C)c1OCC(C)NC(=O)C1=CC(C)(C)NC1(C)C (configuration not stated)	12.8	0.93	11					Average dose (Cavia porcellus [1]): 0.3166 mg/kg; Average dose (Cavia porcellus [4]): 0.3476 mg/kg; No. of positive cases (Rattus norvegicus [5]): 10; Average dose (Cavia porcellus [7]): 0.2534 mg/kg
CCCc1ccc(OCC(=O)NCCCNC(=O)C2=CC(C)(C)NC2(C)C)c(OC)c1	4.1	2.9	12					No. of positive cases (Rattus norvegicus [8]): 10
CC.Cc1cccc(C)c1NC(=O)CNC(=O)C1CC(C)(C)N(O)C1(C)C (configuration not stated)				0				LD50 [10]: > 200 mg/kg
Cc1cccc(C)c1OCC(C)N (configuration not stated) [MEXILETINE]					0.2861	0.1855	0.2459	
Cc1cccc(C)c1NC(=O)C(C)N (configuration not stated) [TOCAINIDE]					0.3928	0.236	0.3581	
Cc1cccc(C)c1OCC(C)NC(=O)C1CC(C)(C)NC1(C)C (configuration not stated)	30.5	0.39	2					No. of positive cases (Rattus norvegicus [5]): 10
Cc1cccc(C)c1OCC(C)NC(=O)C1CC(C)(C)N([O])C1(C)C (configuration not stated)				6				LD50 (Rattus norvegicus [14]): 21 mg/kg; ED150 (Rattus norvegicus [15]): 9.2 mg/kg; Relative potency (Rattus norvegicus [16]): 1.3
C=CCc1ccc(OCC(=O)NCCCNC(=O)C2=CC(C)(C)NC2(C)C)c(OC)c1	8.5							Average dose (Cavia porcellus [17]): 0.2266 mg/kg; Average dose (Cavia porcellus [18]): 0.3536 mg/kg; Average dose (Cavia porcellus [19]): 0.3988 mg/kg; No. of positive cases (Rattus norvegicus [8]): 10
CC1(C)C=C(C(=O)NCCCN2C(=O)c3ccccc3C2=O)C(C)(C)N1[O]				0				LD50 [20]: 187 mg/kg
CCN(CC)CC(=O)Nc1c(C)cccc1C [LIDOCAINE]					0.2702	0.2001	0.2477	

Reference: ChEMBL document CHEMBL1123299, “New antiarrhythmic agents. 2,2,5,5-Tetramethyl-3-pyrroline-3-carboxamides and 2,2,5,5-tetramethylpyrrolidine-3-carboxamindes” (J Med Chem, 1986)
